Source: patent US8759364B2, “Methods of treating bone mass diseases” (The Trustees of Columbia University in the City of New York, priority 2008, dated 2014)
Values joined by “and” are separate entries in the source; they are usually repeats but may differ in a detail not shown here. Equal entries are not always repeated. Where two headings read alike, the source gives them in different places.

Experiments:
[1] = system: peripheral serotonin; assay: Effect of oral CBMIDA on peripheral serotonin production in mice (serum serotonin ELISA), Example 1; format: in vivo; conditions: for reduction of peripheral serotonin measured in serum: 4 week old mice
Procedure: The ability of selective TPH1 inhibitor CBMIDA to reduce peripheral serotonin measured in serum was tested. Either 250 or 500 mg/kg doses of CBMIDA were administered orally twice in 20 hours to 4 week old mice, 4-5 mice per group. As a control, some mice were untreated and some received 250 mg/kg pCPA orally. […] CBMIDA has been reported to be an EDTA analog that increases osteoid volume in beagle dogs and induces proliferation of rat calvarial-derived osteoblasts in vitro (Xie, et al., Bioorganic & Medicinal Chemistry Letters 15 (2005) 3267-3270, incorporated herein by reference in its entirety).
(§1) One month old C57Bl/6 inbred male mice, weighing 15-16 g were used in the experiments. Animals were housed under 12 h light/12 h dark conditions in a room with controlled temperature (22° C.) and humidity (60%). Mice had ad libitum access to food and water, and were used after a minimum of 4 days of acclimatization to the housing conditions. All experiments were conducted following Columbia University Guidelines for the Animal Use and Care of laboratory mice.
Before the experiments, animals were separated into individual cages one day prior to the experiment. Compounds were fed orally (gavage) to the mouse, calculated according to the weight of the mouse, twice a day at 1700 h and at 1100 h. […] This route created two potential barriers for the compound to reach the brain. […] Control animals received the same volume of vehicle. Blood was collected through heart puncture on isofluorane-anaesthesized animals and allowed to clot for 5 minutes on ice. The serum was separated, snap chilled in liquid nitrogen and frozen at −80° C. till analyzed. Brainstems from all the animals were collected and processed for brain serotonin measurement through HPLC.
(§2) The Serotonin ELISA kit obtained from the Fitzgerald company was used to measure derivatized serotonin from serum. Derivatization is part of the sample preparation. Serotonin present in the serum was first quantitatively acylated into N-Acylserotonin using the acylation reagent. The principle of the assay is based on competitive ELISA, wherein serotonin that is bound to the solid phase of the plate and the N-acylserotonin compete for the fixed number of antiserum binding sites. When the reaction is in equilibrium, free antigen and free antigen-antiserum complexes are removed by washing.
The antibody bound to the solid phase serotonin is then detected using antirabbit/peroxidase. The substrate TMB/Peroxidase reaction is read at 450 nm. The amount of antibody bound to the solid phase serotonin is inversely proportional to the concentration of serotonin in the sample.
Catechol-3,6-bis methyleneiminodiacetic acid (CBMIDA) (basic structure is an EDTA-like compound and the catechol ring is at the centre) synthesized at the Columbia University Chemistry division, and para-chlorophenylalanine (pCPA) obtained from Sigma Aldrich Corp. were used. Each compound was dissolved with twice molar solution of NaHCO3 in water and given to mouse orally at 250 and 500 mg/kg/dose.

[2] = system: rat calvarial-derived osteoblasts; conditions: in vitro; cited from earlier work
[3] = system: osteoid volume; conditions: beagle dogs; cited from earlier work
[4] = given orally, cited from earlier work
[5] = system: peripheral serotonin production; assay: Pilot study of tryptophan hydroxylase inhibitors on peripheral serotonin production in ovariectomized mice, Example 12; format: in vivo; conditions: for effect on serotonin levels: oral (gavage) twice a day, dose not given
Procedure: as §1, with “6-week” for “One month”, “female” for “male”, “12-14 g,” for “15-16 g”
Animals were separated into different groups one day prior to the experiments. Mice were ovariectomized (OVX) under anaesthesia (Avertin). Compounds were fed orally (Gavage) twice a day at 1700 h and at 1100 h for the pilot study while for the long term study compounds were given at 1700 h once a day. […] This route creates two potential barriers for the compound to reach the brain. […] Control animals received the same volume of vehicle. Blood was collected through heart puncture on isofluorane-anaesthesized animals, allowed to clot for 5 minutes on ice and then serum was separated, snap chilled in liquid nitrogen and frozen at −80° C. till analyzed. Mice were observed daily for any physical or behavioral abnormality during the course of investigation.
• Group 1: Vehicle • Group 2: Compound 1 • Group 3: Compound 2 • Group 4: Compound 3 • Group 5: Compound 4 (LP-533401) Experiment II: Effect of Compounds 1 and 4 on Protection from OVX-Induced Bone Loss Protocol 1: Gavage Feeding of the Compounds Will be Started 1 Day after OVX for 6 Weeks • Group 1: Sham treatment • Group 2: OVX • Group 3: OVX+Compound 1 (250 mg/kg) • Group 4: OVX+Compound 1 (500 mg/kg) • Group 5: OVX+Compound 4 (250 mg/kg) Protocol 2: Gavage Feeding of the Compounds Will be Started 2 Weeks after OVX for 6 Weeks • Group 1: Sham treatment • Group 2: OVX • Group 3: OVX+Compound 1 (250 mg/kg) • Group 4: OVX+Compound 1 (500 mg/kg) • Group 5: OVX+Compound 4 (250 mg/kg) Protocol 3: Gavage Feeding of the Compounds Will be Started 4 Weeks after OVX for 6 Weeks • Group 1: Sham treatment • Group 2: OVX • Group 3: OVX+Compound 1 (250 mg/kg) • Group 4: OVX+Compound 1 (500 mg/kg) • […] Serotonin Measurement in Serum
as §2, with “acylated” for “acylated into N-Acylserotonin”, “reagent into N-Acylserotonin.” for “reagent.”, “washing. The antibody bound to the solid phase serotonin is then detected by anti-rabbit/peroxidase. The substrate TMB/Peroxidase reaction is read at 450 nm. The amount of antibody bound to the solid phase serotonin is inversely proportional to the concentration of serotonin in the sample.” for “washing.”
We used Catechol-3,6-bis methyleneiminodiacetic acid [(CBMIDA) Compound 1: basic structure is a EDTA-like compound and the catechol ring is at the center)] synthesized at the Columbia University Chemistry division and para-Chlorophenylalanine (pCPA) obtained from Sigma Aldrich Corp. for our experiments. Compounds were dissolved with twice molar solution of NaHCO3 in water and given to mice orally at 250 and 500 mg/kg/dose. Compounds 2 and 3 were dissolved in water.

[6] = system: Serotonin levels in the small intestine; conditions: mice, twice per day over 3-4 days, about 30-90 mg/kg; after six consecutive doses; cited from earlier work
[7] = system: brain-derived serotonin; conditions: mice, twice per day over 3-4 days, about 30-90 mg/kg; cited from earlier work
[8] = molecular target: rb 5-HT1B receptors (Oryctolagus cuniculus, UniProt P49144); conditions: cited from earlier work
[9] = system: CREB; assay: CREB phosphorylation (Western blot) and CREB binding to Cyclin D1 promoter (ChIP) in primary osteoblasts treated with serotonin; format: cell-based, mouse
Procedure: Decreased expression of Cyclin D1 is a major feature of both Lrp5 deficiency and serotonin treatment of osteoblasts (FIGS. 1 and 8). One transcription factor that is known to modulate the expression of cyclin genes and is expressed in osteoblasts is CREB (Fu et al., 2005, Cell 122:803-815). Therefore, whether serotonin could decrease CREB activity in these cells was tested. […] Furthermore, a CREB binding site in the Cyclin D1 mouse promoter was identified and it was shown using ChIP assays that serotonin decreased binding of CREB to this promoter (FIG. 9B). These two observations raise the hypothesis that CREB could be mediating serotonin action on osteoblasts.
(§3) Osteoblasts were treated in serum-free medium with vehicle or Serotonin (50 to 100 μM, Sigma) for 24 hr. Total RNA were extracted with Trizol (Invitrogen). cDNA were generated using the ABI Reverse transcriptase system and random hexanucleotide primers. Real-time PCR was performed using superarray primers on a Stratagene real time PCR cycler and Actin expression was used as endogenous control. Chromatin immunoprecipitation assays (ChIP) were performed by standard procedures using primary osteoblasts. Microarray analysis was performed as described previously (Glass et al., 2005, Dev. Cell 8:751-764).
Osteoblasts were treated in serum-free medium with vehicle or Serotonin (50 to 100 μM, Sigma) for 24 hr. […]

[10] = system: primary osteoblasts; assay: Real-time PCR of cyclin and osteoblast-specific gene expression in primary osteoblasts treated with serotonin; format: cell-based, mouse; conditions: serotonin 50 to 100 μM, 24 hr, versus vehicle, FIG. 8B
Procedure: To test whether serotonin regulates the expression of cyclins in osteoblasts, a real-time PCR analysis of cyclin expression in primary osteoblasts treated with serotonin or vehicle was performed. […] In contrast, expression of Runx2, Osteocalcin and Type I collagen was not modified (FIG. 8B).
Calvaria osteoblasts were extracted by triple collagenase/trypsine digestion from 4 day-old CD1 pups and differentiated with ascorbic acid as previously described (Ducy et al., 2000, Cell 100:197-207).
as §3

Sequence of rb 5-HT1B receptors (P49144 whole entry): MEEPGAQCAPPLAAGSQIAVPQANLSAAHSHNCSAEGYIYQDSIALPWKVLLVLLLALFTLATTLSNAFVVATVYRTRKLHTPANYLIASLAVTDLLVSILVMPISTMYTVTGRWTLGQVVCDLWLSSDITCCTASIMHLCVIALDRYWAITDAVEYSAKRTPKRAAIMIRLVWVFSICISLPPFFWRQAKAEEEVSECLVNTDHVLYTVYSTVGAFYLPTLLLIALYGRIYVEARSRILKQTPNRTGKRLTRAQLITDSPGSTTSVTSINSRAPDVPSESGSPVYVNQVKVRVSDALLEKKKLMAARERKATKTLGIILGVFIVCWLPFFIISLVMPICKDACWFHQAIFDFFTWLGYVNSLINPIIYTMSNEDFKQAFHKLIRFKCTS

In the case of O=C(O)CN(CC(=O)O)Cc1ccc(CN(CC(=O)O)CC(=O)O)c(O)c1O [CBMIDA, Catechol-3,6-bis methyleneiminodiacetic acid], the “reduction of peripheral serotonin measured in serum” value ([1]; 250 mg/kg orally twice in 20 hours) is reported as ~45%, the “decrease of serotonin serum levels” value ([1]; 250 mg/kg, oral, compared with 500 mg/kg, FIG. 11) is reported as “lesser extent” and the “reduction of peripheral serotonin measured in serum” value ([1]; 500 mg/kg orally twice in 20 hours) is reported as “about 80%”. The “serotonin serum levels decreased to % below normal” value ([1]; 500 mg/kg twice daily, oral, FIG. 11) was 80%, the “dose response of serum serotonin reduction” value ([1]; 250 and 500 mg/kg versus control animals) was “dose response curve” and the “peripheral serotonin upon oral feeding” value ([1]; FIG. 11 legend) was “reduces”. For the same compound, the proliferation of osteoblasts [2] was “induces”, the osteoid volume [3] was “increases” and the “share of the oral amount transported into the circulation (blood)” value [4] was 3-5% and 5-10%. The “share of the oral amount transported into the circulation (blood)” value ([4]; listed as Compound 1) was 5-10%, the “decrease of serotonin serum levels” value ([5]; 250 mg/kg, oral, compared with 500 mg/kg) was “lesser extent” and the “serotonin serum levels decreased to % below normal” value ([5]; 500 mg/kg twice daily, oral, FIG. 15) was 80%. The “dose response of serotonin levels” value ([5]; different doses compared to control animals, FIG. 15) was “dose response curve”.

For NC(=O)CN(CC(=O)O)Cc1ccc(CN(CC(N)=O)CC(=O)O)c(O)c1O [Compound 2], the “effect on serotonin levels” value ([5]; pilot study) was “minimal effect”.

With CN1CCc2cccc3c2[C@H]1Cc1cc(CN(CC(=O)O)CC(=O)O)c(O)c(O)c1-3 [Compound 3] the “effect on serotonin levels” value ([5]; pilot study) was “decreased the serotonin levels dramatically” and the “toxicity to the animals (looked very lethargic and sick)” value ([5]; oral, pilot study) was “toxic”.

For CCOC(=O)[C@@H](N)Cc1ccc(-c2cc(OC(c3ccc(-c4cccc(F)c4)cc3)C(F)(F)F)nc(N)n2)cc1 (stereo partly drawn) [LP-615819], the “Serotonin levels in the small intestine” value [6] is listed as “significantly lowered” and the brain-derived serotonin [7] is listed as “unchanged”.

For O=C(c1ccc(F)cc1)C1CCN(CCn2c(=O)[nH]c3ccccc3c2=O)CC1 [ketanserin], the behaviour as antagonist [8] is given as “as silent, competitive”.

For CSc1ccc2c(c1)C(N1CCN(C)CC1)Cc1ccccc1S2 (stereo not drawn) [methiothepin], the behaviour as antagonist [8] is given as “as silent, competitive”.

With NCCc1c[nH]c2ccc(O)cc12 [serotonin, 5-hydroxytryptamine] the CREB phosphorylation ([9]; FIG. 9A) was “significantly decreased”, the “binding of CREB to the Cyclin D1 promoter (ChIP)” value ([9]; FIG. 9B) was “decreased” and the “expression of Cyclin D1 and D2” value [10] was “decreased”. The “expression of Runx2, Osteocalcin and Type I collagen” value [10] was “not modified”.
